For ten compounds, IC50 results are on record in patent US20240425529A1, “BORIC ACID DERIVATIVE” (SHOUYAO HOLDINGS (BEIJING) CO., LTD., priority 2021, published 2024).

Each structure is given as a SMILES string.

Assay [1] has as its target T1, LMP7 (Homo sapiens, UniProt P28062).
T1 construct: using MOLT-4 cell lysate as the enzyme source of LMP7; endogenous in cells; host or cells: MOLT-4 (human acute lymphoblastic leukemia cells)
The assay is described as follows: Enzymatic inhibitory activity on LMP7 (MOLT-4 cell lysate, Ac-ANW-AMC substrate). The assay is classed as biochemical. The conditions noted are these: 1 hour pre-incubation. From the text:
LMP7 is a catalytic subunit of immunoproteasomes. In this experiment, an enzymatic detection platform was established using its hydrolytic enzyme activity and used for compound activity detection. Using Ac-ANW-AMC (Bonston Biochem, Cat #S-320) as a substrate for LMP7, the amount of fluorescent group AMC (7-amino-4-methylcoumarin) released after hydrolysis can reflect the enzymatic activity. MOLT-4 cells are human acute lymphoblastic leukemia cells and have been identified as cells with high expression of LMP7. We established an enzymatic detection method for compound inhibition on LMP7 using MOLT-4 cell lysate as the enzyme source of LMP7 and detected the compound inhibitory activity (half inhibitory concentration, IC50).
(§1) MOLT-4 cells were cultured in a 75 cm^2 cell culture flask (Corning) (37° C., 95% air, and 5% CO2) with RPMI-1640 (Biological Industries) medium containing 10% fetal bovine serum (Biological Industries) and 1% Pen Strep (Gibco) and passaged 2-3 times one week. 1×10^7 MOLT-4 cells were collected, resuspended in 1 ml of PBS (Solarbio), and centrifuged at 3000 rpm for 5 minutes. The supernatant was aspirated off. The cells were resuspended in 500 μl of lysis buffer (20 mM Tris, pH 8.0, 5 mM EDTA, plus Protease inhibitor (1:1000) and Phosphatase Inhibitor (1:100) when used) and left on ice for 30 minutes. The cells were broken by supersonic technique, 0.5 S on, 0.5 S off, for 2.5 S. The centrifuge was performed at 12000 rpm, 4° C. for 10 minutes. The supernatant was the cell lysate and protein quantification was performed by using the BCA method (Thermo, #23225).
Compounds were diluted in a 5-fold gradient with 100% DMSO for a total of 9 concentrations: 2 W for each concentration was added to a 48-μl reaction buffer (20 mM Tris, pH 8.0, 0.5 mM EDTA) and mixed well as 4* compound (final concentrations: 2000, 400, 80, 16, 3.2, 0.64, 0.128, 0.0256, and 0 nM) for later use. A reaction buffer was used to prepare 4* MOLT-4 cell lysate at a final concentration of 20 ng/μl and 2*Ac-ANW-AMC at a final concentration of 100 µM. 5 μl of 4* compound was added to a 384-well plate (OptiPlate-384, purchased from PerkinElmer), added with 5 W of 4* cell lysate, centrifuged, and reacted in an incubator at 23° C. for 1 hour. 10 W of 2* Ac-ANW-AMC was added and the reaction was started by centrifugation at 23° C. in the dark for 2 hours. After completion of the reaction, the signal value (excitation wavelength 345 nm/emission wavelength 445 nm) was read on the CLARIO star^Plus (purchased from BMG LRBTECH). Enzyme activity was determined at 9 concentrations for each compound, and data were processed using the GraphPad Prism software to calculate the half inhibitory concentration of the compound on LMP7, i.e. the IC50 value.

A further assay has as its target T2, β5 (Homo sapiens, UniProt P28074).
T2 construct: using HEK-293 cell lysate as the enzyme source of D5; endogenous in cells; host or cells: HEK-293 (human embryonic kidney cells)
The assay is described as follows: Enzymatic inhibitory activity on β5 (HEK-293 cell lysate, Ac-WLA-AMC substrate). Format: biochemical. The note with it: 1 hour pre-incubation.
From the text: β5 is a catalytic subunit of immunoproteasomes. In this experiment, an enzymatic detection platform was established using its hydrolytic enzyme activity and used for compound activity detection. Using Ac-WLA-AMC (Bonston Biochem, Cat #5-330) as a substrate for D5, the amount of fluorescent group AMC (7-amino-4-methylcoumarin) released after hydrolysis can reflect the enzymatic activity. […] We established an enzymatic detection method for compound inhibition on D5 using HEK-293 cell lysate as the enzyme source of D5 and detected the compound inhibitory activity (half inhibitory concentration, IC50). The enzymatic inhibitory activity of compounds against D5 was used as a measure index of compound selectivity.
as §1, with “HEK-293” for “MOLT-4”, “DMEM” for “RPMI-1640”, “performed” for “performed by”
Compounds were diluted in a 5-fold gradient with 100% DMSO for a total of 9 concentrations. 2 W for each concentration was added to a 48-μl reaction buffer (20 mM Tris, pH 8.0, 0.5 mM EDTA) and mixed well as 4* compound (final concentrations: 100000, 20000, 4000, 800, 160, 32, 6.4, 1.28, and 0 nM) for later use. A reaction buffer was used to prepare 4*HEK-293 cell lysate at a final concentration of 25 ng/μl and 2*Ac-WLA-AMC at a final concentration of 20 μM. 5 W of 4* compound was added to a 384-well plate (OptiPlate-384, purchased from PerkinElmer), added with 5 W of 4*HEK-293 cell lysate, centrifuged, and reacted in an incubator at 23° C. for 1 hour. 10 W of 2* Ac-WLA-AMC was added and the reaction was started by centrifugation at 23° C. in the dark for 2 hours. After completion of the reaction, the signal value (excitation wavelength 345 nm/emission wavelength 445 nm) was read on the CLARIO star^Plus (purchased from BMG LRBTECH). Enzyme activity was determined at 9 concentrations for each compound, and data were processed using the GraphPad Prism software to calculate the half inhibitory concentration of the compound on D5, i.e. the IC50 value.

Assay [2] addresses T1, LMP7. The assay is described as follows: Cytological inhibitory activity on LMP7 in MOLT-4 cells. The note with it: incubation for 2 hours with compound, read-out: Cytological activity data LMP7 Activity (MOLT-4Cell). Format: cell-based. As to the method:
MOLT-4 are human acute lymphoblastic leukemia cells and have been identified as cells with high expression of LMP7. In this experiment, the compounds were pre-incubated with MOLT-4, and Ac-ANW-AMC (BonstonBiochem, Cat #S-320) was used as the substrate of LMP7 to establish the detection method for the enzymatic activity of LMP7 in cells and detect the compound inhibitory activity (half inhibitory concentration, IC50).
Cells were plated in a 24-well plate (Corning) at a concentration of 1.5×10^5/ml per well. The next day compounds were prepared and diluted in a 5-fold gradient from 2 mM in 100% DMSO for a total of 8 concentrations. 2 μl for each concentration of the compound was added to a 1-ml cell culture medium, supplemented with 1 ml of RPMI-1640 only (final FBS concentration 5%, v/v). The compounds were mixed with the cells. After incubation for 2 hours in the incubator, the cells were centrifuged at 2000 rpm for 8 minutes to discard the supernatant. The cells were washed once with 2 ml PBS (Solarbio), and centrifuged again to discard the supernatant. The cells were resuspended in 100 μl of lysis buffer (20 mM Tris, pH 8.0, 5 mM EDTA, plus Protease inhibitor (1: 100) and Phosphatase Inhibitor (1:100) when used) and left in a 4° C. refrigerator for 45 minutes.
After 2 min. of centrifuge at 2000 rpm, the lysate was transferred from the 24-well plate to a 96-well plate, and centrifuged at 2000 rpm, 4° C., for 15 min. The supernatant was the lysate. Protein quantification was performed using the BCA method (Thermo, #23225). A 2* lysate was prepared with the reaction buffer (20 mM Tris, pH 8.0, 0.5 mM EDTA) at a final concentration of 20 ng/μl. 2* Ac-ANW-AMC was prepared with the reaction buffer at a final concentration of 100 μM. 10 µl of 2* lysate was added to a 384-well plate (OptiPlate-384, purchased from PerkinElmer), and added with 10 W of 2* Ac-ANW-AMC. The reaction was started by centrifugation at 23° C. in the dark for 1 hour. After completion of the reaction, the signal value (excitation wavelength 345 nm/emission wavelength 445 nm) was read on the CLARIO starPlus (purchased from BMG LRBTECH). Enzyme activity was determined at 8 concentrations for each compound, and data were processed using the GraphPad Prism software to calculate the half inhibitory concentration of the compound on LMP7 hydrolase in MOLT-4 cells, i.e. the IC50 value.

Turning to `CC1(C)[C@@H]2C[C@H]3OB([C@H](Cc4coc5ccccc45)NC(=O)C(=O)N[C@@H]4C[C@H]5CC[C@@H]4O5)O[C@@]3(C)[C@H]1C2` [Ex. 51, ((R)-1-(2-(((1S,2R,4R)-7-oxabicyclo[2.2.1]heptan-2-yl)amino)-2-oxoacetamido)-2-(benzofuran-3-yl)ethyl)boronic acid (1S,2S,3R,5S)-(+)-pinane-2,3-diol ester], the IC50 on LMP7 [1] is 3.08 nM; on β5 it was 74.6 nM; at LMP7 [2] it was 3.88 nM.

As to `O=C(Nc1cccnc1Cl)C(=O)N[C@@H](Cc1coc2ccccc12)B(O)O` [Ex. 64, (R)-(2-(benzofuran-3-yl)-1-(2-oxo-2-((2-chloropyridin-3-yl)amino)acetamido)ethyl)boronic acid], the IC50 against LMP7 [1] came to 2.31 nM; against β5, 25.4 nM; at LMP7 [2], 1.79 nM.

On to `O=C(N[C@@H](Cc1coc2ccccc12)B(O)O)C(=O)N[C@@H]1C[C@H]2CC[C@@H]1O2` [Ex. 1, ((R)-1-(2-(((1S,2R,4R)-7-oxabicyclo[2.2.1]heptan-2-yl)amino)-2-oxoacetamido)-2-(benzofuran-3-yl)ethyl)boronic acid], for which the values for the IC50 at LMP7 [1], on β5 and on LMP7 [2] were 7.65 nM, 154 nM and 5.94 nM, respectively.

Consider `CC1(C)[C@@H]2C[C@H]3OB([C@H](Cc4coc5ccccc45)NC(=O)C(=O)Nc4ccccn4)O[C@@]3(C)[C@H]1C2` [Ex. 23, (R)-(2-(benzofuran-3-yl)-1-(2-oxo-2-(pyridin-2-ylamino)acetamido)ethyl) boronic acid (1S,2S,3R,5S)-(+)-pinane-2,3-diol ester], for which the IC50 against LMP7 [1] was determined as 3.81 nM; against β5, 126 nM; at LMP7 [2], 1.65 nM.

With `O=C(Nc1ccc(F)cc1F)C(=O)N[C@@H](Cc1coc2ccccc12)B(O)O` [Ex. 55, (R)-(2-(benzofuran-3-yl)-1-(2-oxo-2-(2,4-difluorophenylamino)acetamido)ethyl)boronic acid], the IC50 at LMP7 [1] came to 1.43 nM; at β5 it was 54.6 nM; on LMP7 [2], 6.84 nM.

For `O=C(Nc1cnccn1)C(=O)N[C@@H](Cc1coc2ccccc12)B1OCCCO1` [Ex. 70], the IC50 against LMP7 [1] was 1.5 nM; against β5, 26 nM; at LMP7 [2] it was 0.91 nM.

Regarding `CC1(C)[C@@H]2C[C@H]3OB([C@H](Cc4coc5ccccc45)NC(=O)C(=O)Nc4ncc(Cl)s4)O[C@@]3(C)[C@H]1C2` [Ex. 35, (R)-(2-(benzofuran-3-yl)-1-(2-oxo-2-((5-chlorothiazol-2-yl)amino)acetamido)ethyl)boronic acid (1S,2S,3R,5S)-(+)-pinane-2,3-diol ester], the IC50 at LMP7 [1] turned out to be 1.99 nM; against β5 it was 38.4 nM; on LMP7 [2] it was 13.6 nM.

As to `Cn1cccc(NC(=O)C(=O)N[C@@H](Cc2coc3ccccc23)B2O[C@@H]3C[C@@H]4C[C@@H](C4(C)C)[C@]3(C)O2)c1=O` [Ex. 57, (R)-(2-(benzofuran-3-yl)-1-(2-oxo-2-((1-methyl-2-oxo-1,2-dihydropyridin-3-yl)amino)acetamido)ethyl)boronic acid (1S,2S,3R,5S)-(+)-pinane-2,3-diol ester], the IC50 on LMP7 [1] is 1.32 nM; against β5 it was 140 nM; at LMP7 [2] it was 4.03 nM.

For `O=C(Nc1cnc2ccccc2n1)C(=O)N[C@@H](Cc1coc2ccccc12)B(O)O` [Ex. 47, (R)-(2-(benzofuran-3-yl)-1-(2-oxo-2-(quinoxalin-2-ylamino)acetamido)ethyl) boronic acid], the IC50 turned out to be 3.1 nM at LMP7 [1], 43.5 nM against β5 and 2.32 nM on LMP7 [2].

For the compound `O=C(N[C@@H](Cc1coc2ccccc12)B(O)O)C(=O)N1CC2COCC2C1` (stereo partly drawn) [Ex. 29, (R)-(2-(benzofuran-3-yl)-1-(2-oxo-2-(tetrahydro-1H-furo[3,4-c]pyrrol-5(3H)-yl)acetamido)ethyl)boronic acid], the IC50 against LMP7 [1] turned out to be 7.81 nM; against β5, 41.4 nM; on LMP7 [2] it was 15.9 nM.
